Laboratory results from patent US9505740B2, “Cyclic amine derivative and pharmaceutical use thereof” (Toray Industries, Inc., priority 2013, dated 2016).
Counter-ions that a name gives are not always drawn.

Assays:
[1] = test system: mouse partial sciatic nerve ligation model; experiment: Mouse partial sciatic nerve ligation model (Seltzer model), von Frey test; format: in vivo; conditions: oral administration; Example 8 10 mg/kg (Day 7), Example 38 0.1 to 10 mg/kg (Day 8), pregabalin 10 mg/kg; 1, 2 and 3 hours after administration; vs partial sciatic nerve ligation+distilled water, p<0.05
Excerpt: Using a partial sciatic nerve ligation model (Seltzer model) in mice by which neuropathic pain can be evaluated, the analgesic action of a cyclic amine derivative (I) or a prodrug thereof or a pharmacologically acceptable salt thereof was investigated.
As the cyclic amine derivative (I) or a pharmacologically acceptable salt thereof, the compounds of Example 2, 4, 6, 8, 10, 12, 13, 15, 18, 22, 25, 27, 29, 31, 33, 66, 68 or 70 was used for evaluation. As the prodrug of the cyclic amine derivative (I) or a pharmacologically acceptable salt thereof, the compound of Example 38 was used for evaluation. The compound of Example 38 is a hydrochloride of a prodrug obtained by esterifying the carboxyl group of the compound of Example 39 with an ethyl group.
The mouse partial sciatic nerve ligation model was prepared in accordance with the method of Seltzer et al. (Malmberg et al., Pain, vol. 76, p. 215-222, 1998). • Slc: ICR mice (5 weeks old, male; from Japan SLC, Inc.) or Crl: CD1 (ICR) mice (5 weeks old, male; from CHARLES RIVER LABORATORIES JAPAN, INC.) were anesthetized with sodium pentobarbital (70 mg/kg, intraperitoneal administration). The sciatic nerve at the femoral region of the right hind paw of each mouse was exposed and triply ligated tightly with silk suture of 8-0 (from NATSUME […]., LTD.) under a stereomicroscope so that only half thickness of the nerve was trapped in the ligature. A group of mice thus treated was designated as a partial sciatic nerve ligation group. A group of mice whose sciatic nerve was just exposed and not ligated was designated as a sham surgery group.
Evaluation of neuropathic pain (hereinafter referred to as von Frey test) was performed as follows. Mice were conditioned for at least two hours in an acrylic cage for measurement (from NATSUME […]. LTD.) placed on a wire net. […]

[2] = test system: fibromyalgia syndrome model rats; experiment: Fibromyalgia syndrome model in rats (acidic saline), allodynia by von Frey filament; format: in vivo, rat; conditions: vs acidic saline-vehicle group
Excerpt: Using a fibromyalgia syndrome model in rats by which fibromyalgia syndrome can be evaluated, the analgesic action of a cyclic amine derivative (I) or a prodrug thereof or a pharmacologically acceptable salt thereof was investigated.
As the cyclic amine derivative (I) or a pharmacologically acceptable salt thereof, the compound of Example 13 was used for evaluation. As the prodrug of a cyclic amine derivative (I) or a pharmacologically acceptable salt thereof, the compound of Example 38 was used for evaluation. The compound of Example 38 is a hydrochloride of a prodrug obtained by esterifying the carboxyl group of the compound of Example 39 with an ethyl group.
To prepare a fibromyalgia syndrome model rat (Sluka et al., Journal of Pharmacology and Experimental Therapeutics, vol. 302, p. 1146-50, 2002; Nagakura et al., Pain, vol. 146, p. 26-33, 2009; Sluka et al., Pain, vol. 146, p. 3-4, 2009), which is generally employed widely in basic research for fibromyalgia syndrome, acidic saline (100 μL) adjusted to pH4.0 was intramuscularly injected to the gastrocnemius muscle of the right hind paw of Crl: CD(SD) rat (6 to 7 weeks old, male; from CHARLES RIVER LABORATORIES JAPAN, INC.) under continuous inhalation anesthesia with isoflurane, twice (once in each day of Day 1 and Day 6, wherein Day 1 was the date on which the acidic saline was initially administrated). The rats thus prepared were raised in a breeding room controlled at an indoor temperature of 21 to 25° C. and an indoor humidity of 40 to 70% under the conditions of voluntary intake of food and water. In the same manner, rats to which physiological saline in place of acidic saline was intramuscularly injected were raised. The rats thus raised and not afflicted with fibromyalgia syndrome (“physiological saline-vehicle” group in FIGS. 23 and 24) were also used in the experiment.
Day 7 after the initial administration of acidic saline, allodynia in each rat was measured. […] Note that, measurement of allodynia was performed by use of a von Frey filament (from North Coast Medical) in accordance with the method described in a known literature (Chaplan et al., Journal of Neuroscience Methods, vol. 53, p. 55-63, 1994). […]
The compound of Example 13 (3 and 10 mg/kg) was dissolved in physiological saline and then administered (intravenous administration) to fibromyalgia syndrome model rats through the tail vein (“acidic saline—the compound of Example 13” in FIG. 23). […] In thirty minutes after the intravenous administration, allodynia in individual rats was measured to evaluate an analgesic action. […]

[3] = test system: mouse partial sciatic nerve ligation model; experiment: Mouse partial sciatic nerve ligation model (Seltzer model), von Frey test; format: in vivo; conditions: Day 7, vs physiological saline group
[4] = intravenous administration, Example 13 3 and 10 mg/kg, pregabalin 10 mg/kg, 30 minutes after administration
[5] = oral administration, 10 mg/kg, one hour and three hours after administration, p<0.05
[6] = intravenous administration (tail vein), Examples 2, 4: 0.1 to 10 mg/kg, 13: 0.01 to 1 mg/kg, 18, 22: 0.1 and 1 mg/kg, 25, 27, 29, 31, 33, 66, 68, 70: 0.1 mg/kg, pregabalin 1 or 3 mg/kg
[7] = intraventricular administration, 10 μg/site, 15, 30 and 60 minutes after administration, p<0.05

How did the “analgesic action, total score in the von Frey test” value (“analgesic action, total score” for short) [1] turn out when `CC(C)C[C@H](CN)CC(=O)O` [pregabalin, reference compound] was run?
Its value is “statistically significant analgesic action”.

What about the “allodynia, 50% response threshold (mean value of the right hind paw and the left hind paw)” value (“allodynia, 50% response threshold” below) [2, 4] of the same compound?
The value was “statistically significantly improved”.

What about the “allodynia, 50% response threshold” value [2, 5] of the same compound?
The value was “statistically significantly improved”.

What about the “analgesic action, total score” value [3, 6] of the same compound?
The value was “statistically significant analgesic action”.

How did the “analgesic action, total score” value [1] turn out when `Cn1ccnc1CCC(=O)N1CCC(N)CC1` [Example 8, 1-(4-aminopiperidin-1-yl)-3-(1-methyl-1H-imidazol-2-yl)propan-1-one hydrochloride] was run?
The value was “statistically significant analgesic action”.

`CN(C)C1CCN(C(=O)CCc2nccn2CC(=O)O)CC1` [Example 13, 2-(2-(3-(4-(dimethylamino)piperidin-1-yl)-3-oxopropyl)-1H-imidazol-1-yl)acetic acid hydrochloride] was tested. Which “allodynia, 50% response threshold” value [2, 4] did it give?
Its value is “statistically significantly improved”.

And the “analgesic action, total score” value [3, 6]?
Its value is “statistically significant analgesic action”.

What about the “analgesic action, total score” value [3, 7] of the same compound?
Its value is “statistically significant analgesic action”.

Which results are given for `CCOC(=O)Cn1ccnc1CCC(=O)N1CCC(N(C)C)CC1` [Example 38, ethyl 2-(2-(3-(4-(dimethylamino)piperidin-1-yl)-3-oxopropyl)-1H-imidazol-1-yl)acetate hydrochloride]?
analgesic action, total score in the von Frey test [1]: statistically significant analgesic action; allodynia, 50% response threshold (mean value of the right hind paw and the left hind paw) [2, 5]: statistically significantly improved

For `CCN(CC)C1CCN(C(=O)CCc2nccn2CC(=O)O)CC1.Cl` [Example 22, 2-(2-(3-(4-(diethylamino)piperidin-1-yl)-3-oxopropyl)-1H-imidazol-1-yl)acetic acid hydrochloride], which “analgesic action, total score” value [3, 6] is on record?
The value was “statistically significant analgesic action”.

How did the “analgesic action, total score” value [3, 7] turn out when `CC(=O)NCCN(C)C1CCN(C(=O)CCc2nccn2C)CC1` [Example 6, N-(2-(methyl(1-(3-(1-methyl-1H-imidazol-2-yl)propanoyl)piperidin-4-yl)amino)ethyl)acetamide hydrochloride] was run?
Its value is “statistically significant analgesic action”.

With `CC(=O)N(C)C1CCN(C(=O)CCc2nccn2C)CC1.Cl` [Example 4, N-methyl-N-(1-(3-(1-methyl-1H-imidazol-2-yl)propanoyl)piperidin-4-yl)acetamide hydrochloride] as the compound, how does the “analgesic action, total score” value [3, 6] read?
The value was “statistically significant analgesic action”.

What about the “analgesic action, total score” value [3, 7] of the same compound?
The value was “statistically significant analgesic action”.
